Measurements as given in patent publication US9295732B2, “Conjugated TLR7 and/or TLR8 and TLR2 polycationic agonists” (CAYLA, priority 2013, dated 2016).

Tests used:
human TLR7 = biological target: T1, human TLR7 (Homo sapiens, UniProt Q9NYK1); assay: HEK-Blue hTLR7 NF-κB/AP-1 SEAP reporter assay; assay type: cell-based; conditions: HEK-Blue hTLR7 cells, 10 μg/mL to 10 pg/ml, 24 hours, OD at 655 nm, FIG. 1
T1 construct: host or cells: HEK293 (HEK-Blue™ hTLR7)
T1 sequence (Q9NYK1 27-1049): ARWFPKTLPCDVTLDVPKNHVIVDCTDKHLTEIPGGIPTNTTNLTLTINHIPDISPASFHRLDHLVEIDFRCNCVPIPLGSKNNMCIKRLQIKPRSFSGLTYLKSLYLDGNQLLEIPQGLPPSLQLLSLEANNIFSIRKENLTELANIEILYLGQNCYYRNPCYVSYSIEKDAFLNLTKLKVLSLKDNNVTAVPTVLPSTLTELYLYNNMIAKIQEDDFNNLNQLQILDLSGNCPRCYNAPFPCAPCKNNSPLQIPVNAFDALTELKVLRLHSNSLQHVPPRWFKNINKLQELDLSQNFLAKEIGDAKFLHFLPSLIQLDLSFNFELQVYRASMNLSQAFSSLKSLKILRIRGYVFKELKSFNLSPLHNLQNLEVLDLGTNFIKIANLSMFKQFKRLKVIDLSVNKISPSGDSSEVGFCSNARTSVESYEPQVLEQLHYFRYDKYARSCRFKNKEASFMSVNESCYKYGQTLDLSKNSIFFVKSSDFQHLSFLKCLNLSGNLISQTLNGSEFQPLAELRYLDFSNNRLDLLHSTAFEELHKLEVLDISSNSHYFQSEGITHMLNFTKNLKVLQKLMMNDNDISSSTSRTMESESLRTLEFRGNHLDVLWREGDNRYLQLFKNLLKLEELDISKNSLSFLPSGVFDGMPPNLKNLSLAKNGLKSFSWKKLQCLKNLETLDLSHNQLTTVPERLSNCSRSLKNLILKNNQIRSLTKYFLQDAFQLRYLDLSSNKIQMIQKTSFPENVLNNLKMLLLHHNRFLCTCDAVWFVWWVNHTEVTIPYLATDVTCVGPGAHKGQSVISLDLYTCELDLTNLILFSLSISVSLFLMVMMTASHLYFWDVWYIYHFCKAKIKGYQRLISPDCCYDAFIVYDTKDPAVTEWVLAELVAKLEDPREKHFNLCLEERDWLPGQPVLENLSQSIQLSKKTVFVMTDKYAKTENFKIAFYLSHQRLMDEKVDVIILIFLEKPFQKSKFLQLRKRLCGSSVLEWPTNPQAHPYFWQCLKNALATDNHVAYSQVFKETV
Experimental: (§1) Cell-based assays were carried out using TLR7 and TLR2 reporter cell lines (InvivoGen). The reporter cell lines are engineered HEK293 cells, a human embryonic kidney cell line (ATCC, CRL-1573) that stably express either murine TLR7 (HEK-Blue™ mTLR7) or human TLR7 (HEK-Blue™ hTLR7) or human TLR2 (HEK-Blue™ hTLR2) with an NF-κB-inducible secreted embryonic alkaline phosphatase (SEAP) as the reporter gene. The SEAP reporter gene is under the control of the NF-κB and AP-1-inducible promoter, which, upon treatment with a corresponding TLR ligand and activation of NF-κB and AP-1, induces the production of SEAP. Detection of SEAP is measured following culturing cells in HEK-Blue™ Detection media (InvivoGen). HEK-Blue™ Detection contains a SEAP substrate that when hydrolysed by SEAP produces a colorimetric change allowing for detection of SEAP as the protein is secreted. […] These assays were carried out using RAW-Blue™ Cells (InvivoGen), derived from RAW 264.7 mouse leukemic monocyte macrophage cell line (ATCC, CRL 2278) stably overexpressing a NF-B/AP-1 inducible SEAP reporter constructs.
(§2) To perform the assay, cells were seeded on 96 well microliter plates at 50,000 or 100,000 cells per well for HEK-Blue™ Cells and RAW-Blue™ Cells respectively, and cultured at 37° C. in the presence of the conjugated compounds The TLR7-TLR2 polyamine molecules were prepared as follows: First, stock solutions of the conjugated compounds of the invention were prepared in ethanol or water to a concentration of 10 mg/ml.
(§3) The working dilutions of the conjugated TLR7-TLR2 polyamine agonists made up in water or PBS were directly added to the reporter cell lines at a final concentration ranging from 10 μg/mL to 10 pg/ml and incubated at 37° C. for 24 hours. After 24 hours of incubation, the effect on reporter gene activity was determined by reading the OD at 655 nm using iMark™ Microplate Reader (BIO-RAD).

[1] = tested on: endogenous TLR2 and TLR7 in RAW-Blue™ Cells; assay: RAW-Blue Cells NF-κB/AP-1 SEAP reporter assay; assay type: cell-based, mouse; conditions: 24 hours, OD at 655 nm, FIG. 4
Experimental: as §1, §2, §3

murine TLR7 = biological target: T2, murine TLR7 (Mus musculus, UniProt P58681); assay: HEK-Blue mTLR7 NF-κB/AP-1 SEAP reporter assay; assay type: cell-based; conditions: HEK-Blue mTLR7 cells, 10 μg/mL to 10 pg/ml, 24 hours, OD at 655 nm, FIG. 2
T2 construct: host or cells: HEK293 (HEK-Blue™ mTLR7)
T2 sequence (P58681 27-1050): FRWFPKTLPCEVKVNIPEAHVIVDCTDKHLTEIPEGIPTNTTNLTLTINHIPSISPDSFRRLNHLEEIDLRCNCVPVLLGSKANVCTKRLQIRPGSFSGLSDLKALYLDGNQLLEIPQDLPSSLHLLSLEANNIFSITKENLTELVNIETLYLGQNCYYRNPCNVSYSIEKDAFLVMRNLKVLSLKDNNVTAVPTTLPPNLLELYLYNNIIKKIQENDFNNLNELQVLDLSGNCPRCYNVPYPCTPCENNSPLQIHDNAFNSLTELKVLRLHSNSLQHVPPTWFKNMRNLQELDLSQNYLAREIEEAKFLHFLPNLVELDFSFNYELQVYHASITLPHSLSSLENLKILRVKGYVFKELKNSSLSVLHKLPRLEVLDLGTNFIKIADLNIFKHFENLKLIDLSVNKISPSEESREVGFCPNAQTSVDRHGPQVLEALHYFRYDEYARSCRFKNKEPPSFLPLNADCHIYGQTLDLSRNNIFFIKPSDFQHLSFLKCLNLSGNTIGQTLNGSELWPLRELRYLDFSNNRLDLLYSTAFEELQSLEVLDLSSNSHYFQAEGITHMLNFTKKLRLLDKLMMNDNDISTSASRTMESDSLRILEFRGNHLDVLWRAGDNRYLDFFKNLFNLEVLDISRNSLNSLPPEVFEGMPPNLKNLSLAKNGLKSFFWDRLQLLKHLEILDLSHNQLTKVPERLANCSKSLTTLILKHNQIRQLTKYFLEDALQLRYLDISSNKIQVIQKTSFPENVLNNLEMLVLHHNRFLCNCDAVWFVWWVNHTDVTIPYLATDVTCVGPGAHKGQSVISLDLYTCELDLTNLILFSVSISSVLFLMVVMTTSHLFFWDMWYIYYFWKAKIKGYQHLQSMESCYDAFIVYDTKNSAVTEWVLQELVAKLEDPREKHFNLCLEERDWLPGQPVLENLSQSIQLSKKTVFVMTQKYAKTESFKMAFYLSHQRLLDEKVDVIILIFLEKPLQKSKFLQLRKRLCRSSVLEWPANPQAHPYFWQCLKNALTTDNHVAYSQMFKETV
Experimental: as §1, §2, §3

human TLR2 = biological target: T3, human TLR2 (Homo sapiens, UniProt O60603); assay: HEK-Blue hTLR2 NF-κB/AP-1 SEAP reporter assay; assay type: cell-based; conditions: HEK-Blue hTLR2 cells, 10 μg/mL to 10 pg/ml, 24 hours, OD at 655 nm, FIG. 3
T3 construct: host or cells: HEK293 (HEK-Blue™ hTLR2)
Experimental: as §1, §2, §3

plasmid DNA (pDNA) = assay: Gel shift (mobility shift) assay of pDNA complexation; assay type: binding; conditions: pDNA:molecule ratio 3:24 (w:w), 0.8% agarose gel, compared to pDNA alone
Experimental: Then, 10 μl of pDNA:TLR7-TLR2 polyamine molecule complexes and 2 μl of charge buffer were mixed and loaded into wells of a 0.8% agarose gel. Samples were migrated through the gel in TAE buffer under 135 voltage for 21 mins and the migration of the pDNA was visualized following ethidium bromide staining under UV light. The ability of TLR7-TLR2 polyamine molecules to complex/associate with the pDNA was identified by partial or complete retardation of the pDNA migration toward the anode in the gel compared to pDNA alone. […] Ethidium bromide intercalation of pDNA in complex with molecules allowed visualization of complexed pDNA as a smear in the wells of the gel.

T3 sequence (O60603 21-784): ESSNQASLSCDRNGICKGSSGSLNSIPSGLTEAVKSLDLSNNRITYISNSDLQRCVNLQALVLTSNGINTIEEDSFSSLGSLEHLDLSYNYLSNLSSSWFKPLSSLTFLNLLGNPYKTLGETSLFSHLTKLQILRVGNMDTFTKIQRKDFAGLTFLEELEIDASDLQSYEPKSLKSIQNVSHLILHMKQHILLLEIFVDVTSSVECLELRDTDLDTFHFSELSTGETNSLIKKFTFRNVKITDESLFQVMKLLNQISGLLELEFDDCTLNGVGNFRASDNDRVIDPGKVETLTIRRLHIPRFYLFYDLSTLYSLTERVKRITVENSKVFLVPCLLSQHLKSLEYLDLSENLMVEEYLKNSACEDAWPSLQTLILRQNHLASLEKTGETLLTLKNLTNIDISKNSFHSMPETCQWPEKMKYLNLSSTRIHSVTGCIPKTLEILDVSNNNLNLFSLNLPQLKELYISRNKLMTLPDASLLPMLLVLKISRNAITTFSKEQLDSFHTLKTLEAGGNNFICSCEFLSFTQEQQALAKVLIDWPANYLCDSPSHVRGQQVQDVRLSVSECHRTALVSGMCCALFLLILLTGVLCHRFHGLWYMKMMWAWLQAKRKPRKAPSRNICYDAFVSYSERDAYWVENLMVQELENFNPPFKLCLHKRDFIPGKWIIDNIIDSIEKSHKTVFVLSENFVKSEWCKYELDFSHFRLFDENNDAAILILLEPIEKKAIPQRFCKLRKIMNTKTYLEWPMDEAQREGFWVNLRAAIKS

Structure (SMILES)	ability to activate hTLR7 (human TLR7)	ability to activate endogenous TLR2 and TLR7 in RAW-Blue Cells [1]	ability to activate mTLR7 (murine TLR7)	ability to activate hTLR2 (human TLR2)	ability to complex pDNA (retardation of pDNA migration in agarose gel) (plasmid DNA (pDNA))
CCCCCCCCCCCCCCCC(=O)OCC(CSC[C@H](N)C(=O)N[C@@H](CO)C(=O)N[C@@H](CCCCNC(=O)c1ccc(Cn2c(O)nc3c(N)nc(NCCCC)nc32)cc1)C(=O)N[C@@H](CCCCN)C(=O)N[C@@H](CCCCN)C(=O)N[C@@H](CCCCN)C(=O)O)OC(=O)CCCCCCCCCCCCCCC (stereo partly drawn) [CL533, (2S,5S,8S,11S,14S,17R)-17-amino-11-(4-(4-((6-amino-2-(butylamino)-8-hydroxy-9H-purin-9-yl)methyl)benzamido)butyl)-2,5,8-tris(4-aminobutyl)-14-(hydroxylmethyl)-4,7,10,13,16,24-hexaoxo-21-(palmitoyloxy)-23-oxa-19-thia-3,6,9,12,15-pentaazanonatria contan-1-oic acid]	activate hTLR7	activate endogenous TLR2 and TLR7	activate mTLR7	activate hTLR2	inability to migrate through an agarose gel
CCCCCCCCCCCCCCCC(=O)OCC(CSC[C@H](N)C(=O)N[C@@H](CO)C(=O)N[C@@H](CCCCN)C(=O)N[C@@H](CCCCN)C(=O)N[C@@H](CCCCNC(=O)c1ccc(Cn2c(O)nc3c(N)nc(NCCCC)nc32)cc1)C(=O)N[C@@H](CCCCN)C(=O)O)OC(=O)CCCCCCCCCCCCCCC (stereo partly drawn) [CL530, (2S,5S,8S,11S,14S,17R)-17-amino-5-(4-(4-((6-amino-2-(butylamino)-8-hydroxy-9H-purin-9-yl)methyl)benzamido)butyl)-2,8,11-tris(4-aminobutyl)-14-(hydroxymethyl)-4,7,10,13,16,24-hexaoxo-21-(palmitoyloxy)-23-oxa-19-thia-3,6,9,12,15-pentaaza nonatriacontan-1-oic acid]	activate hTLR7	activate endogenous TLR2 and TLR7	activate mTLR7	activate hTLR2	inability to migrate through an agarose gel
CCCCCCCCCCCCCCCC(=O)N[C@@H](CSCC(COC(=O)CCCCCCCCCCCCCCC)OC(=O)CCCCCCCCCCCCCCC)C(=O)N[C@@H](CO)C(=O)N[C@@H](CCCCN)C(=O)N[C@@H](CCCCNC(=O)c1ccc(Cn2c(O)nc3c(N)nc(NCCCC)nc32)cc1)C(=O)N[C@@H](CCCCN)C(=O)N[C@@H](CCCCN)C(=O)O (stereo partly drawn) [CL536, (2S,5S,8S,11S,14S,17R)-8-(4-(4-((6-amino-2-(butylamino)-8-hydroxy-9H-purin-9-yl)methyl)benzamido)butyl)-2,5,11-tris(4-aminobutyl)-14-(hydroxymethyl)-4,7,10,13,16,24-hexaoxo-17-palmitamido-21-(palmitoyloxy)-23-oxa-19-thia-3,6,9,12,15-pentaazanonatriacontan-1-oic acid]	activate hTLR7	activate endogenous TLR2 and TLR7	activate mTLR7	activate hTLR2	inability to migrate through an agarose gel
CCCCCCCCCCCCCCCC(=O)OCC(CSC[C@H](N)C(=O)N[C@@H](CO)C(=O)N[C@@H](CCCCN)C(=O)N[C@@H](CCCCNC(=O)c1ccc(Cn2c(O)nc3c(N)nc(NCCCC)nc32)cc1)C(=O)N[C@@H](CCCCN)C(=O)N[C@@H](CCCCN)C(=O)O)OC(=O)CCCCCCCCCCCCCCC (stereo partly drawn) [CL531, (2S,5S,8S,11S,14S,17R)-17-amino-8-(4-(4-((6-amino-2-(butylamino)-8-hydroxy-9H-purin-9-yl)methyl)benzamido)butyl)-2,5,11-tris(4-aminobutyl)-14-(hydroxymethyl)-4,7,10,13,16,24-hexaoxo-21-(palmitoyloxy)-23-oxa-19-thia-3,6,9,12,15-pentaaza nonatriacontan-1-oic acid]	activate hTLR7	activate endogenous TLR2 and TLR7	activate mTLR7	activate hTLR2	inability to migrate through an agarose gel
CCCCCCCCCCCCCCCC(=O)OCC(CSC[C@H](N)C(=O)Nc1ccc(Cn2c(O)nc3c(N)nc(NCCCC)nc32)cc1)OC(=O)CCCCCCCCCCCCCCC (stereo partly drawn) [CL401, reference compound]					lacks the ability to complex pDNA
